Holding throughout (format): functional
Assay [1] is described as follows: Antioxidant activity assessed as nitric oxide radical scavenging activity.
The nature of assay [2]: Antioxidant activity assessed as superoxide radical scavenging activity.
Assay [3] can be described thus: Antioxidant activity assessed as peroxy nitrite free radical scavenging activity.
The test system of assay [4] is Radical scavenging activity. Briefly: Antioxidant activity assessed as DPPH free radical scavenging activity.

Bounds are passed on as bounds.

A word on the IC50: it is the concentration at which inhibition is half-maximal. On to `CC1(C)N([O])C(c2ccc(C(=O)O)cc2)=[N+]([O-])C1(C)C`, for which, in assay [1], the half-maximal inhibitory concentration (IC50) came to 138 µM.

With `OCc1cc(O)c(O)c(Cl)c1`, the IC50 in assay [2] was 11 µM; in assay [3] it was 3.1 µM; in assay [1], 0.5 µM; in assay [4], 0.6 µM.

As for `OCc1cc(O)ccc1O` [GENTISYL ALCOHOL], the IC50 in assay [2] was above 50 µM; in assay [3], 2.2 µM; in assay [1] it was 0.4 µM; in assay [4], 1.4 µM.

On to `O=C1C=C(CO)[C@H](O)[C@@H]2O[C@H]12` [PARASITENONE], for which the concentration for half-maximal inhibition (IC50) came to 52.6 µM in assay [3] and 57 µM in assay [4].

For the origin of these results see ChEMBL document CHEMBL1156408, “Parasitenone, a new epoxycyclohexenone related to gabosine from the marine-derived fungus Aspergillus parasiticus” (J Nat Prod, 2002).
